Source: patent US10723699B2 (Hyundai Pharm Co., Ltd., priority 2015, dated 2020)

Tests used:
[1] = molecular target: T1, G protein-coupled receptor 119 (GPR-119) (Mesocricetus auratus, UniProt A0A1U8CD06); assay: cAMP activity in HIT-T15 cells (cAMP dynamic kit, FRET); assay type: cell-based, hamster; details: 1 hour at 37° C., six concentrations 0.0032 to 10 μM, read-out: EC50
T1 construct: hamster-derived β-cells containing G protein-coupled receptor 119 (GPR-119), HIT-T15 cells; host or cells: HIT-T15 (hamster pancreatic β-cells)
T1 sequence (A0A1U8CD06 1-334): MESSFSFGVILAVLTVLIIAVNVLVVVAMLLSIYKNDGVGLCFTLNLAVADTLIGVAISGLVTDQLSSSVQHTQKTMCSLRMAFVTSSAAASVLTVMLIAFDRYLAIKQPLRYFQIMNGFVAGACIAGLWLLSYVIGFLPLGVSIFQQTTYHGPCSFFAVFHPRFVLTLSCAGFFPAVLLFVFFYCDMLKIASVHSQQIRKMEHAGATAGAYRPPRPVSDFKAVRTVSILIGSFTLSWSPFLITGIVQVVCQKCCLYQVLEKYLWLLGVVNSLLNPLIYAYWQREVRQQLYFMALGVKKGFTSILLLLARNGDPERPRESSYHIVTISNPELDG
Procedure, shortened: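 Hamster HIT-T15 cells (60,000/well) were treated next day with compound at six concentrations, 0.0032–10 μM, for 1 h at 37° C. Cells were then lysed and cAMP measured by competitive HTRF immunoassay (D2-cAMP, cryptate anti-cAMP). Activity was derived as the change in FRET signal relative to DMSO.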

CYP1A2 = molecular target: T2, CYP1A2 (Homo sapiens, UniProt P05177); assay: CYP inhibition assay (BD GENTEST kit); assay type: in vitro ADME; details: 10 μM
T2 construct: purchased BD GENTEST 459100
T2 sequence (P05177 1-516): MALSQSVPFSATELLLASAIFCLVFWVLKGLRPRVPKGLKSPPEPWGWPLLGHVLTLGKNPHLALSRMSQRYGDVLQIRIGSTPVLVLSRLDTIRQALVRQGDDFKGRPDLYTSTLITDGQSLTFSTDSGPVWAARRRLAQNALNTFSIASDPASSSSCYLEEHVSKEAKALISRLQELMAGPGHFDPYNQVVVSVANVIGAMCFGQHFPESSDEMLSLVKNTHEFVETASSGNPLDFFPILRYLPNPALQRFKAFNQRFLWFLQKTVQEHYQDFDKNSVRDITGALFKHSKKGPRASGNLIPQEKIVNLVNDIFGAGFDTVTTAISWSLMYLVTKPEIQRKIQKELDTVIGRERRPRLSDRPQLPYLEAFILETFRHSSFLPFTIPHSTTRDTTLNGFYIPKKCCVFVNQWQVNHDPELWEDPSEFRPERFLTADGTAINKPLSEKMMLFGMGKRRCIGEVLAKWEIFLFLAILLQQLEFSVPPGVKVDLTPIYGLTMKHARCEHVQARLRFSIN
Text: (§1) CYP enzymes play a major role in the metabolism of drugs. Depending on the inhibition activity of the CYP enzymes, the dose of the drugs and toxicity due to the co-administration of other drugs can be predicted. Therefore, we have measured the inhibitory activity for CYP3A4, CYP2C9, CYP1A2, CYP2D6 and CYP2C19 enzymes present in the body using the compounds of the present invention. Invitrogen P2862 kit was used for CYP2D6 inhibition assay, and BD GENTEST (459100, 459300, 459400, 459500) kits were used for CYP1A2, CYP2C9, CYP2C19 and CYP3A4 inhibition assay. In case of Invitrogen kit, the test materials were diluted in distilled water into 2.5× of the final test concentration.
(§2) In case of BD GENTEST kit, the test materials were diluted in acetonitrile into 50× of the final test concentration. NADPH-cofactor mixture containing cofactor, G6PDH and control protein was prepared in distilled water as per manufacturer's instruction. 4 μl of 50× test materials and 96 μl of NADPH-cofactor mixture were mixed in U-bottom 96-well plate, and the resulting mixture were pre-incubated at 37° C. for 10 minutes. Predetermined concentrations of enzyme/substrate mixture were prepared in distilled water using buffer (0.5M potassium phosphate, pH 7.4) and each of CYP450 enzyme/substrate mixture provided in the kit for the types of CYP450. To the pre-incubated plate, 100 μl of enzyme/substrate mixture was added, and then incubated at 37° C. for 15 minutes (CYP1A2), 30 minutes (CYP3A4 and CYP2C19) or 1.5 hours (CYP2C9). After completion of the reaction, the reactants were transferred to the white plates, and fluorescent values were measured using a micro-plate reader (Excitation and absorption wavelengths of CYP1A2 and CYP2C19 were 410 nm and 460 nm, respectively; and excitation and absorption wavelengths of CYP2C9 and CYP3A4 were 409 nm and 530 nm, respectively).
(§3) The measured values were converted into the inhibition percent of the test materials as compared to the value of the untreated control, and the results were summarized in Table 5.

CYP2C19 = molecular target: T3, CYP2C19 (Homo sapiens, UniProt P33261); assay: CYP inhibition assay (BD GENTEST kit); assay type: in vitro ADME; details: 10 μM
T3 construct: purchased BD GENTEST 459400
T3 sequence (P33261 whole entry): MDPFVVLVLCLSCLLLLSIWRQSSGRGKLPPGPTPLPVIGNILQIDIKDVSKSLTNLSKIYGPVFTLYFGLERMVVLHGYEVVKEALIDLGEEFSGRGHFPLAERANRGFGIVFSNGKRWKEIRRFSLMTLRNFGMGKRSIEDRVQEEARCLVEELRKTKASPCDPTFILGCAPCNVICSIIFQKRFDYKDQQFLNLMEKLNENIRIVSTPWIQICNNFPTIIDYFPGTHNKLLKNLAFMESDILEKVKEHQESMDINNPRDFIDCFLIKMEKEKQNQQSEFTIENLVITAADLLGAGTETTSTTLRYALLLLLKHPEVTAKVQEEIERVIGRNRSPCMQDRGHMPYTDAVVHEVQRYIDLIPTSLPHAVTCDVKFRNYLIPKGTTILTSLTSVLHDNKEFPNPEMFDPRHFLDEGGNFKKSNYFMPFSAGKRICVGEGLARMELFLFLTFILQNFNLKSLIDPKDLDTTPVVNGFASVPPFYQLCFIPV
Text: as §1, §2, §3

CYP2C9 = molecular target: T4, CYP2C9 (Homo sapiens, UniProt P11712); assay: CYP inhibition assay (BD GENTEST kit); assay type: in vitro ADME; details: 10 μM
T4 construct: purchased BD GENTEST 459300
T4 sequence (P11712 whole entry): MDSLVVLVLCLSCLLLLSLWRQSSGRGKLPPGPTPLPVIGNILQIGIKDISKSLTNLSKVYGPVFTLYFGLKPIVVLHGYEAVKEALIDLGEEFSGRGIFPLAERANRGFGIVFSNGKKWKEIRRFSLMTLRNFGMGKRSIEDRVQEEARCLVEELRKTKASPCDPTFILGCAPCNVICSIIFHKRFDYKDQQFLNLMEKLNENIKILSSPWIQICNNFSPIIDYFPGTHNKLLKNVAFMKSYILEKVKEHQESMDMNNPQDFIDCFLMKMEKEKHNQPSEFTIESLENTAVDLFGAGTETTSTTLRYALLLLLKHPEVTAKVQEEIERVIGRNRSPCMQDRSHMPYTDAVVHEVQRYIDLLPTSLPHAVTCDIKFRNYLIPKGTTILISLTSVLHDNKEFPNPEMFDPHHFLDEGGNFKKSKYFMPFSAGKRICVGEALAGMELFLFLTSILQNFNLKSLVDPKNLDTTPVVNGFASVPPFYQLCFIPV
Text: as §1, §2, §3

CYP3A4 = molecular target: T5, CYP3A4 (Homo sapiens, UniProt P08684); assay: CYP inhibition assay (BD GENTEST kit); assay type: in vitro ADME; details: 10 μM
T5 construct: purchased BD GENTEST 459500
T5 sequence (P08684 whole entry): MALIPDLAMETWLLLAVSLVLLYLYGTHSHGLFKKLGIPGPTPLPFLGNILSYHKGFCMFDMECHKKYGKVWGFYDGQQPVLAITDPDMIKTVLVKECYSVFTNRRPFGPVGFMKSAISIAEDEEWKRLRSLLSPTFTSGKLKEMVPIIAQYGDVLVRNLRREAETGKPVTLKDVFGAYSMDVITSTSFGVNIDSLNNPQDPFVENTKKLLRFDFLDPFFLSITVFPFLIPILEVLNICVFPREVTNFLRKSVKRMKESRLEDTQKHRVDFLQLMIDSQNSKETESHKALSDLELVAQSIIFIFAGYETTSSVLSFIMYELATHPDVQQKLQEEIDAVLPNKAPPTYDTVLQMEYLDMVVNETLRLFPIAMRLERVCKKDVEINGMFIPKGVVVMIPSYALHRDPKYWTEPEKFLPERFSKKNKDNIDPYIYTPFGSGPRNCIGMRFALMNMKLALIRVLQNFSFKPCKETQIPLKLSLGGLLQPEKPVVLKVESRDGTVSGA
Text: as §1, §2, §3

## CCc1cnc(N2CCC(COc3ccc(C4=CCC(C(=O)N5CCC[C@@H]5CO)CC4)cc3)CC2)nc1 (single isomer, unassigned; (-)) [Example 291]
[1]
  EC50: 0.032 µM
CYP1A2
  CYP inhibition (% at 10 μM) 1A2: 0%
CYP2C19
  CYP inhibition (% at 10 μM) 2C19: 54.06%
CYP2C9
  CYP inhibition (% at 10 μM) 2C9: 47.32%
CYP3A4
  CYP inhibition (% at 10 μM) 3A4: 36.36%
